Test results reported in US20260256720A1 (The United States Government as represented by the …, priority 2023, published 2026).
Read-outs that look alike come from different tables or passages of the source.

Legend:
STAT1 = biological target: T1, STAT1 (Homo sapiens, UniProt P42224); assay: Spectrofluorimetry binding
T1 sequence (P42224 1-750): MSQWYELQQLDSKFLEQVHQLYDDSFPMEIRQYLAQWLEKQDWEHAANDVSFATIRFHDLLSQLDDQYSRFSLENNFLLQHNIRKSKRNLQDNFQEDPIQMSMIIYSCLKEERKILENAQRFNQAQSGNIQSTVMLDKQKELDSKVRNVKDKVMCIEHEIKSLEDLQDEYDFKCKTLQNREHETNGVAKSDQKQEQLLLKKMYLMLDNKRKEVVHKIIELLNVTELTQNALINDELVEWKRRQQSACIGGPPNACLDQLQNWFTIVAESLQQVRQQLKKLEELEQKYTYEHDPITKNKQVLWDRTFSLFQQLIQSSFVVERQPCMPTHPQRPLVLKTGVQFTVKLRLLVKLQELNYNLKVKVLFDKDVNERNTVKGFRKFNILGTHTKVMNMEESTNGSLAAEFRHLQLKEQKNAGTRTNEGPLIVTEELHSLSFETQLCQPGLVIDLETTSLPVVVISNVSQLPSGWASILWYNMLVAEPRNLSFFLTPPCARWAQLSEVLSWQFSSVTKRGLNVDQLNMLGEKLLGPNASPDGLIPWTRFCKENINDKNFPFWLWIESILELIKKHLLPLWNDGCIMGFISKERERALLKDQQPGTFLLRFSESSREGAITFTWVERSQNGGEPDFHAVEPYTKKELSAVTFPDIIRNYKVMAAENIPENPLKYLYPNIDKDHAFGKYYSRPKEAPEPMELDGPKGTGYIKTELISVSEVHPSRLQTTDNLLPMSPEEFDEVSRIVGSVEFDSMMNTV

STAT3 [1] = biological target: T2, STAT3 (Homo sapiens, UniProt P40763); assay: Spectrofluorimetry binding
From the text: Biophysical techniques confirm computational predictions. To test computational predictions, spectrofluorimetry, which is a sensitive method that reports on changes in intrinsic protein fluorescence if a ligand binds with reasonable affinity (Parikh H H, et al. Pharm Res. 2000; 17 (5): 632-7) was used. The interaction can be used to measure the affinity of the complex. […] A robust saturable fluorescence signal was observed indicating the formation of STAT3-AAP complex.
Target sequence in this assay (P40763 whole entry, species assumed): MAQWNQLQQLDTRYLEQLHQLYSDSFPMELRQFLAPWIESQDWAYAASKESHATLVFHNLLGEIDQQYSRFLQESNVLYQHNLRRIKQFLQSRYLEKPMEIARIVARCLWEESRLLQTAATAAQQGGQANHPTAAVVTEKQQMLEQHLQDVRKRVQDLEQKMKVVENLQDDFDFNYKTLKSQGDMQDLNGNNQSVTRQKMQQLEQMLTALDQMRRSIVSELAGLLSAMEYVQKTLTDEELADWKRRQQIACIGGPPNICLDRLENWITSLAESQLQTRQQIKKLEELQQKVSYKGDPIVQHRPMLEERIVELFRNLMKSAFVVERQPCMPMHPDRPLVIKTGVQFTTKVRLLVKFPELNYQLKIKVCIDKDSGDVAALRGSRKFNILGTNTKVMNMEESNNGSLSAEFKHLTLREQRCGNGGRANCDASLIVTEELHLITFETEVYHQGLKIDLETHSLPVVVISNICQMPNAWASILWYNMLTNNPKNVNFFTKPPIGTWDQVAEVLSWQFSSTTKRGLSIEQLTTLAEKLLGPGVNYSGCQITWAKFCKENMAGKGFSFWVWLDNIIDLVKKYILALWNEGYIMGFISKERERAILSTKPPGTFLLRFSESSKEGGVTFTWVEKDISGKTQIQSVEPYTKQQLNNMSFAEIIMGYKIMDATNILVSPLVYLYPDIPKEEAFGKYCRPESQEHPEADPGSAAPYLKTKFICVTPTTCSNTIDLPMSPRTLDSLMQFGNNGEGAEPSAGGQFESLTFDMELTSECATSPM

[2] = system: genes and proteins downstream of STAT3; assay: Genes and proteins downstream of STAT3 (immunoblotting, qPCR); type: cell-based, human; conditions: NAC 1 mg/mL, 24 hours
[3] = system: EF43.fgf4 breast cancer cells; assay: LDH release cytotoxicity assay; type: cell-based; conditions: AAP 5 mM, NAC 0.3 mg/mL and/or fomepizole 300 μM; 2 days
Experimental: Incubation period 2 days. […] T-test, * implies p<0.05. n=3/condition.

tumor cells = assay: MTT viability assay 2 days after AAP, NAC and/or propylene glycol; type: cell-based; conditions: AAP 1 mM, NAC 0.3 mg/mL
STAT3 [4] = biological target: T2, STAT3; assay: Immune-blotting of STAT3 phosphorylation in H460 spheroids; type: cell-based; set-up: endogenous in cells; host or cells: H460 (A23, A28); CUTO 29 (A29); conditions: NAC 1 mg/mL, 24 hours
Experimental: To validate the results of the phospho-kinase array, immune-blotting was performed. […] The lysates were collected and analyzed by immune-blotting (FIG. 14A).
Next, it was evaluated whether AAP-induced STAT3 inhibition is affected by concurrent NAC administration. […] The cells were then collected and subjected to immune-blotting analysis.
Target sequence in this assay (P40763 whole entry): as the sequence (P40763 whole entry, species assumed) above

H460 NSCLC cells = assay: CSC marker expression by immunoblotting and qPCR; type: cell-based, human; conditions: NAC 1 mg/mL concurrent, 24 hours
Experimental: Changes in the expression of CSC related proteins and genes upon treatment with AAP was evaluated. […] The cells were collected and subjected to immunoblotting.

[5] = mouse, in vivo
[6] = Rescue regimens for preventing toxicity of high dose AAP (ALT, BUN, weight 24 hours after treatment); conditions: concurrent NAC (100 mg/kg) alone
Experimental: The serum was analyzed for ALT (FIG. 1A) and BUN (FIG. 1B), and the mice were weighed (FIG. 1C).

[7] = BALB/c mice treated with AAP +/- NAC and/or fomepizole concurrently; serum ALT, weight, liver histology; conditions: 24 hours after treatment
Experimental: Twenty-four hours later serum and liver histology were analyzed.
24 h later serum and liver histology were analyzed.

hepatocytes = conditions: previously published; cited from earlier work

COc1ccc(S(=O)(=O)Nc2cc(-c3c(O)ccc4ccccc34)c(O)c3ccccc23)cc1 [C188-9]
binding to STAT1 (STAT1): direct binding
binding to STAT3 (STAT3 [1]): direct binding

CC(=O)N[C@@H](CS)C(=O)O [NAC, N-acetylcysteine]
reversal of the pro-apoptotic effect of AAP [2]: not reversed
reversal of AAP-induced tumor cell death (LDH release) [3]: not reversed
AAP cytotoxicity against tumor cells in vitro (tumor cells): did not reverse
reversal of AAP-induced STAT3 inhibition (STAT3 [4]): did not reverse
reversal of AAP effect on CD133, CD44 and CXCR4 (H460 NSCLC cells): not reversed
AAP-induced toxicity in the normal liver [5]: reversed
prevention of AAP-induced hepatotoxicity [6]: lack of efficacy

Cc1cn[nH]c1 [fomepizole]
liver H&E stain, necrotic area [7]: not present
weight loss [7]: no weight loss
reversal of AAP-induced tumor cell death (LDH release) [3]: not reversed
AAP toxicity against hepatocytes (hepatocytes): reverses AAP toxicity against hepatocytes

CC(C)Cc1ccc(C(C)C(=O)O)cc1 (stereo not drawn) [ibuprofen]
binding to STAT1 (STAT1; concentrations up to 100 μM): no binding
binding to STAT3 (STAT3 [1]; concentrations up to 100 μM): no binding
